# Laboratory results published in patent US10881718B2, “Bifunctional conjugate compositions and associated methods” (priority 2010, dated 2021).
# Non-standard residues stand in square brackets, D forms with d. No end group written: not given here. Ahx = NCCCCCC(=O)O
# Columns and labels:
# [1] = parameters: species or system mice; settings: mouse, in vivo, sc
# Procedure: In Vivo Imaging. In vivo imaging was completed using the Maestro Imaging Suite. Animals were anesthetized using an isoflurane vaporizer and IR-820 labeled SAgA was injected s.c. at the base of the neck. After injection images were taken of the animal's top, left, bottom, and right side by rotating the animal in the exposure pane. The animal was imaged at defined time points over a 24 hour period to track the drainage and clearance of the SAgA from the injection site.
# [2] = system: TNF-α; experiment: Plasma cytokine analysis (ELISA) in EAE mice: TNF-α; assay type: in vivo, SJL/J mice; settings: day 6; PBS 1.8 pg/mL
# Procedure: (§2) Blood samples were taken from each mouse via mandibular bleeds (˜100 uL) on days 0, 6, 12, 18, 25. To ensure there was enough sample to perform ELISA cytokine testing blood from, two mice within the same group was pooled at each time point for a total of four samples per group. Samples were collected in heparin-containing tubes and centrifuged to separate red blood cells. Plasma was collected and sent for cytokine analysis to the Cytokine Core Laboratory at the University of Maryland. The cytokines analyzed were IL-2, IL-4, IL-10, IL-17, TNF-α, and TGF-β.
# [3] = system: EAE model induced in SJL/J mice; experiment: Suppression of EAE by SAgAs: cell adhesion target and size (Example 2); assay type: in vivo; settings: PLP conc. 100 nMol as printed in Table 11
# Procedure: (§1) Induction of EAE and Therapeutic Study.
# Four-6 week-old SJL/J female mice were immunized subcutaneously (s.c) with […] of PLP139-151 in a 0.2 mL emulsion composed of equal volumes of complete Freund's adjuvant (CFA) containing killed Mycobacterium tuberculosis strain H37RA (final concentration of 4 mg/mL; Difco) and phosphate-buffered saline (PBS) containing PLP. The PLP139-151/CFA emulsion was administered to regions above the shoulders and the flanks (total of four sites; 50 μL at each injection site). Additionally, 200 ng/100 μL of pertussis toxin (List Biological Laboratories Inc.) was injected intraperitoneally (i.p.) on the day of immunization (day 0) and 2 days post-immunization. […] One hundred μL of each vehicle was injected for all samples and controls. […] Body weight was also measured daily.
# Statistical differences were determined by comparing treated groups to the negative control (PBS) for clinical disease score and body weight. […] For individual clinical day scores and cytokine measurements T test was employed. All analyses were performed using GraphPad Software (GraphPad Software Inc.).
# Efficacy of SAgAs was evaluated in the EAE model induced in SJL/J mice. The study design is outlined in Table 11 below. Typically disease onset occurs at approximately day 8 and progresses to remission around day 20. […]
# [4] = system: IFN-γ; experiment: Plasma cytokine analysis (ELISA) in EAE mice: IFN-γ; assay type: in vivo, SJL/J mice
# Procedure: as §2
# [5] = system: IL-17; experiment: Plasma cytokine analysis (ELISA) in EAE mice: IL-17; assay type: in vivo, SJL/J mice
# Procedure: as §2
# [6] = system: EAE model induced in SJL/J mice; experiment: Suppression of EAE by SAgAs and NP-Arrays (Example 1); assay type: in vivo; settings: PLP conc. 100 nMol (100* for LABL-only arrays); s.c. days 4, 7, 10
# Procedure: as §1
# SJL/J (H-2s) female mice, 4-6 weeks old, were purchased from The Jackson Laboratory and housed under specified, pathogen-free conditions at The University of Kansas. All protocols involving live mice were approved by the Institutional Animal Care and Use Committee. Mice were immunized subcutaneously (s.c) with […] of PLP139-151 in a 0.2 mL emulsion composed of equal volumes of phosphate-buffered saline (PBS) and complete Freund's adjuvant (CFA) containing killed Mycobacterium tuberculosis strain H37RA (final concentration of 4 mg/mL; Difco). The PLP139-151/CFA was administered to regions above the shoulders and the flanks (total of four sites; 50 μL at each injection site). In addition, 200 ng/100 μL of pertussis toxin (List Biological Laboratories Inc.) was injected intraperitoneally (i.p.) on the day of immunization (day 0) and 2 days post-immunization. The mice received s.c. injections of each sample, equivalent to 100 nMol PLP/100 μL, on days 4, 7, 10. All NP samples were sonicated to disperse NPs before injection. For HA samples and controls, 100 μL of each vehicle was injected. […] Body weight was also measured daily.
# Statistical differences were determined by comparing treated groups to the negative control (PBS) for clinical disease score and body weight. […]
# The SAgAs and NP-Arrays were evaluated in an EAE model induced in SJL/J mice. […]
Substance,time of drainage/clearance of IR820-labeled material from the injection site [1] [min],plasma TNF-α peak concentration [2] [pg/mL],Clinical Significance vs PBS: % Weight loss [3],"Clinical Significance vs PBS: Score ([3]; s.c. days 4, 7, 10)",reduction in peak expression of IFN-γ compared to PBS controls ([4]; Day 6) [%],"average plasma concentration of IFN-γ ([4]; day 6, PBS 72 pg/mL) [pg/mL]","plasma IL-17 concentration ([5]; day 6, PBS 23 pg/mL) [pg/mL]",plasma IL-17 concentration ([5]; day 12) [pg/mL],Clinical Data Significance compared to PBS: % Weight loss [6],Clinical Data Significance compared to PBS: Score [6]
Hyaluronic acid [HA],≤ 1440,,,,,,,,,
Hyaluronic acid [70 kDa HA],500,,,,,,,,,
HSLGKWLGHPDKF-AcGAcGAc-ITDGEATDSG (HSLGKWLGHPDKF[Ahx]G[Ahx]G[Ahx]ITDGEATDSG) [PLP-BPI],,3.1,"p < 0.05, Days 16","p < 0.05, Days 14 & 17",~40,31,40,31,"Days 12-16, 18-22, p < 0.01","Day 12, p < 0.001"
